Tested on: antibodies in sera of foals (goat anti-horse IgG detection)
Assay: Peptide ELISA: biotinylated overlapping VapA peptides screened with foal sera
Format: binding
Conditions: for number of positive sera recognizing (positive with) the peptide: fifty-one positive sera (foals with current R. equi disease), 1 in 250, positive = at least twice background OD at 450 nm
Excerpt: Biotinylated peptides synthesized by Mimotopes, Victoria, Australia were used in all assays. The peptide bank used in the initial screening of sera was designed based upon the published sequence of VapA (Genbank accession No: D21236). A total of 50 overlapping peptides, each 11 amino acid residues in length (offset by 3 residues at a time) were synthesized beginning from the predicted signal peptide cleavage site between amino acids 31 and 32 up to and including the C terminus.
A total of seventy foal sera, most of these from animals aged between 4 to 12 weeks, were used to screen the peptides. Fifty-one sera were from foals with current R. equi disease (positive sera). Sixteen sera were from foals with no known history of R. equi infection and three sera were from foals that had recovered from R. equi infection 10 months previously (negative sera). Thirty-nine of the positive sera and all negative sera were obtained from studs in South Australia and New South Wales, Australia.
Biotin-SGSG(spacer) labelled peptide units were used as antigen targets. Neutravidin bound to the surface of a micro-titre plate was then used to bind the biotin labelled peptide to the plate. The procedure is as follows:
A solution of neutravidin was diluted 1 in 300 in sterile distilled water to a final concentration of 3.3 μg/ml, and 100 μl per well was added to a micro-titre plate and the plate was left overnight at 37° C. 200 μl 1% casein/1×PBS/0.05% Tween 20 was then added to each well and the plate was left for at least 1 hour at room temperature (or at 4° C. if left longer) before the solution in the plate was flicked out. The plate was then washed five times with 1×PBS/0.05% Tween 20 using an automatic plate washer and the plates were dried by slapping against absorbent paper. […]
The plate was then read using an ELISA plate reader at 450 nm.
Interpretation of data. […] The background OD was the mean of the lowest 50% of all OD values obtained with that particular serum and all OD readings that were twice this value were considered positive. […]

Sequence	number of positive sera recognizing (positive with) the peptide	number of positive sera positive with only this peptide (fifty-one positive sera, fifty-peptide bank)
NLQKDEPNGRA [Seq I.D. No. 47]	fifty-one	two
YLNINFFDSSG [Seq I.D. No. 133]	Ten	–
